Data: US11491155B2, “Salt of a pyrimido[6,1-A]isoquinolin-4-one compound” (VERONA PHARMA PLC, priority 2015, dated 2022)
Counter-ions that a name gives are not always drawn.

Assays:
Assay type in all cases: physicochemical
[1] = Behaviour to humidity by Gravimetric Vapour Sorption (GVS); settings: for Behaviour to humidity: GVS, 0-90% humidity, 25° C.; for water adsorbed: up to 90% humidity
Method: Gravimetric Vapour Sorption—Sorption isotherms were obtained using a Hiden Isochema moisture sorption analyser (model IGAsorp), controlled by IGAsorp Systems Software V6.50.48. The sample was maintained at a constant temperature (25° C.) by the instrument controls. The humidity was controlled by mixing streams of dry and wet nitrogen, with a total flow of 250 ml·min^−1. The instrument was verified for relative humidity content by measuring three calibrated Rotronic salt solutions (10-50-88%). The weight change of the sample was monitored as a function of humidity by a microbalance (accuracy+/−0.005 mg). A defined amount of sample was placed in a tared mesh stainless steel basket under ambient conditions. A full experimental cycle typically consisted of three scans (sorption, desorption and sorption) at a constant temperature (25° C.) and 10% RH intervals over a 0-90% range (60 minutes for each humidity level).
(§1) The nature of the hydration and a preliminary examination of salt robustness/polymorphism was assessed by thermal manipulation using ThermoGravimetric Analysis (TGA) and Gravimetric Vapor Soprtion (GVS).

[2] = Primary particle size analysis by laser light diffraction (Mastersizer 2000); settings: micronised, mean n=3
Method: A Mastersizer 2000 fitted with a Scirocco 2000 dry powder dispersion unit (Malvern Instruments Ltd, UK) was used to analyse the primary particle size of the micronised RPL554 and salt variants. The salts (50 mg) were automatically sampled via a vibrating feed control at a feeder rate of 60% and dispersed in compressed air at a pressure of 3 bar.

[3] = Thermal manipulation (isothermal 105° C., thermal cycle; TGA/DSC/XRPD)
Method: Differential Scanning calorimetry (DSC)—DSC data were collected on a PerkinElmer Pyris 4000 DSC equipped with a 45 position sample holder. The instrument was verified for energy and temperature calibration using certified indium. A predefined amount of the sample, 0.5-3.0 mg, was placed in a pin holed aluminium pan and heated at 20° C.·min^−1 from 30 to 350° C., or varied as experimentation dictated. A purge of dry nitrogen at 60 ml·min^−1 was maintained over the sample. The instrument control, data acquisition and analysis were performed with Pyris Software v9.0.1.0203.
Thermo-Gravimetric Analysis (TGA)—TGA data were collected on a PerkinElmer Pyris 1 TGA equipped with a 20 position auto-sampler. The instrument was calibrated using a certified weight and certified Alumel and Perkalloy for temperature. A predefined amount of the sample, 1-5 mg, was loaded onto a pre-tared aluminium crucible and was heated at 20° C.·min^−1 from ambient temperature to 400° C. A nitrogen purge at 20 ml·min^−1 was maintained over the sample. The instrument control, data acquisition and analysis were performed with Pyris Software v9.0.1.0203.
as §1

[4] = Stability assessment of RPL554 and salts: lactose powder blends (70° C., seven days); settings: after storage at both room and elevated (70° C.) temperatures, 7 days
Method: A validated HPLC method (Onyx-Scientific, Final product testing monograph for RPL554) for the determination of chemical purity by HPLC was used.
The following chromatography conditions were used: Column: Waters X Bridge phenyl, 3.5 μm, 150×4.6 mm, (Part number 186003335); Diluent: Acetonitrile:Water (50:50, v/v); Mobile Phase: A—Purified Water:Trifluoroacetic acid (100:0.1); B—Acetonitrile:Trifluoroacetic acid (100:0.1); Flow Rate: 1.0 mL/min; Injection Volume: 10 μl; Detection: UV @ 254 nm; Column Temperature: 30° C.; Post Run: 5 min; Gradient: [Time (min): % A:% B]: [0: 95:5], [2: 95:5]; [15: 5:95], [20: 5:95], [22: 95:5].
Samples of 1% w/w RPL554 free base or salt variants: lactose blends were prepared and stored at elevated temperature (70° C.) for seven days, control samples were stored at ambient conditions and protected from light on the laboratory bench. All samples (approximately 0.5 g) were accurately weighed into screw cap glass scintillation vials (20 mL). For storage at elevated temperature samples were placed in an oven at 70° C. protected from light. Control sample vials were capped, protected from light and stored on the bench for 7 days.
In addition, to the RPL554 and salt variant blends, samples of lactose alone were also stored at the elevated temperature condition (control samples at ambient). The lactose only samples served as baseline data for the HPLC analysis. […]

[5] = listed as ethane-1,2-disulfonate salt
[6] = listed as hydrochloride salt, hydrochloride

SMILES | Behaviour to humidity [1, 5] | water uptake ([1]; to 50% humidity) | water adsorbed [1, 5] | D (0.1) (μm) [2] | D (0.5) (μm) [2] | D (0.9) (μm) [2] | form change by thermal manipulation ([3]; below the melt endotherm) | Thermal cycle ([3]; hydrochloride) | Behaviour to humidity [1, 6] | water adsorbed [1, 6] | D (0.1) (μm) ([2]; hydrochloride) | D (0.5) (μm) ([2]; hydrochloride) | D (0.9) (μm) ([2]; hydrochloride) | peak area of the RPL554, % of the total areas [4]
COc1cc2c(cc1OC)-c1c/c(=N\c3c(C)cc(C)cc3C)n(CCNC(N)=O)c(=O)n1CC2 [Ethane-1,2-disulfonate, RPL554 ethane-1,2-disulfonate] | reversible adsorption and desorption over the humidity range with no hysteresis | 4 mole equivalents | up to 5 mole equivalents | 0.52 μm | 1.25 μm | 2.78 μm | – | – | – | – | – | – | – | –
COc1cc2c(cc1OC)-c1c/c(=N\c3c(C)cc(C)cc3C)n(CCNC(N)=O)c(=O)n1CC2 [Hydrochloride, RPL554 hydrochloride] | – | – | – | – | – | – | No form change was detected | Stable form | reversible adsorption and desorption over the humidity range with no hysteresis | up to 2 mole equivalents | 0.53 μm | 1.37 μm | 3.47 μm | –
COc1cc2c(cc1OC)-c1c/c(=N\c3c(C)cc(C)cc3C)n(CCNC(N)=O)c(=O)n1CC2 [Sulfate, RPL554 sulfate] | – | – | – | 0.51 μm | 1.12 μm | 2.30 μm | – | – | – | – | – | – | – | 82%
